Legend:
adult αMHC-GFP TTFs = test: Flow cytometry of αMHC-GFP+ and cTnT+ TTFs after retroviral reprogramming; assay type: cell-based, mouse; settings: ZNF281 added to 5F (6F), 7 days
Method: (§1) Retroviruses production, cellular reprogramming and treatment. For retroviruses production, Platinum E cells were seeded into culture dishes (1×10^5 cells/cm2) one day before transfection in DMEM supplemented with 10% FBS and 1% penicillin/streptomycin. Cells reached ˜80% confluency on the day of transfection. DNA plasmids were transfected into Platinum E cells using FuGENE 6 transfection reagent. Twenty-four hours after transfection, wild type or αMHC-GFP tail-tip fibroblasts were seeded into culture dishes or plates that were precoated with SureCoat (Cellutron) for one hour at a density of 6×10^4/cm^2. Forty-eight hours after transfection, polybrene was added to viral medium that was filtered through a 0.45-μm filter at a concentration of […]. The mixture replaced the growth medium in the cell culture plate with tail-tip fibroblasts. The viral infection was serially repeated twice. Twenty-four hours after the second infection, the viral medium was replaced with induction medium, composed of DMEM/199 (4:1), 10% conditioned medium obtained from neonatal rat cardiomyocyte culture, 10% FBS, 5% horse serum, 1% penicillin/streptomycin, 1% nonessential amino acids, 1% essential amino acids, 1% B-27, 1% insulin-selenium-transferrin, 1% vitamin mixture, and 1% sodium pyruvate (Invitrogen). Small molecule treatments were used throughout the reprogramming process […] (Sigma).
Flow Cytometry. For flow Cytometry, cells were trypsinized and fixed with fixation buffer (BD Bioscience) for 15 min on ice. Fixed cells were washed with Perm/Wash buffer (BD Bioscience) for three times. […] Cells were washed with Perm/Wash buffer, and then analyzed using FACS Caliber (BD Sciences) and FlowJo software.
ZNF281 enhances cardiac reprogramming of adult fibroblasts. […] The addition of ZNF281 to 5F increased the expression of GFP and cTnT in αMHC-GFP CFs evaluated by immunocytochemistry after 7 days of reprogramming (FIG. 10A). […]

adult TTFs = test: q-PCR of marker transcripts in retrovirally reprogrammed adult TTFs; assay type: cell-based, mouse; settings: ZNF281 added to 5F, versus 5F
Method: as §1
Quantitative mRNA measurement. Total RNA was extracted using TRIzol (Invitrogen) according vender's protocol. RNAs were retrotranscribed to cDNA using iScript Supermix (Bio-Rad). qPCR was performed using Kapa Sybr Fast (Kapa Biosystems). mRNA levels were normalized by comparison to Gapdh mRNA.
(§2) ZNF281 enhances cardiac reprogramming of adult fibroblasts. PHF7 and ZNF281 were the two strongest activators identified from retroviral cDNA expression screen with 5F (FIG. 1D; Table S2). PHF7 is only expressed in the male germ line (Yang et al., 2012), whereas ZNF281 has a broad expression pattern with enriched expression in the heart (FIG. 51). The inventors therefore focused their initial attention on ZNF281 and explored its ability to enhance the activity of 5F. They refer to the reprogramming mix of 5F plus ZNF281 as 6F. […] The addition of ZNF281 to 5F increased the expression of GFP and cTnT in αMHC-GFP CFs evaluated by immunocytochemistry after 7 days of reprogramming (FIG. 10A). […]
Co-repression of inflammatory genes by ZNF281 and NuRD complex components. […] Addition of NuRD complex subunits also promoted cardiac reprogramming, as measured by flow cytometry using the cardiac markers αMHC-GFP and cTnT (FIG. 5B, FIGS. S2A-B).

[1] = tested on: adult cardiac fibroblasts (CF); test: Beating cells after 4 weeks of reprogramming; assay type: cell-based, mouse; settings: ZNF281 in presence of 5F
From the text: as §2, with “6F. The inventors validated the results of their screen by assessing GFP and cTnT expression in αMHC-GFP TTFs following 5F and 6F reprogramming after 7 days (FIG. 3A). […] This TTF reprogramming efficiency using 6F is noteworthy when considering the relatively low statistical likelihood of each fibroblast taking up all five or six separate retroviruses encoding the reprogramming factors. The inventors also examined the expression of cardiac and fibroblast transcripts by q-PCR.” for “6F.”

[2] = tested on: αMHC promoter (αMHC-Luciferase); test: αMHC-luciferase reporter assay in HEK293 cells; assay type: cell-based
From the text: To determine if ZNF281 could directly activate cardiac genes, the inventors examined the ability of ZNF281 to activate a luciferase reporter controlled by the αMHC promoter (αMHC-Luciferase).

Zinc finger protein 281 [ZNF281]
cTnT+ TTFs (adult αMHC-GFP TTFs): ~45%
αMHC-GFP+ TTFs (adult αMHC-GFP TTFs): ~33%
αMHC-GFP+/cTnT+ TTFs (adult αMHC-GFP TTFs): ~28%
decrease of Col1a2 expression (adult TTFs): ~30%
decrease of Sox9 expression (adult TTFs): ~60%
increase of Actc1 expression (adult TTFs): ~20 fold
increase of Myh6 expression (adult TTFs): ~120 fold
increase in the number of beating cells [1]: 2 fold
activation of αMHC-Luciferase reporter ([2]; ZNF281 alone): ~7 fold
activation of αMHC-Luciferase reporter ([2]; ZNF281 co-expressed with GATA4): ~15 fold

Reference: patent publication US20210180023A1, “CARDIAC REPAIR BY REPROGRAMMING OF ADULT CARDIAC FIBROBLASTS INTO CARDIOMYOCYTES” (The Board of Regents of the University of Texas System, priority 2017, published 2021)
